Laboratory results: publication PMC9995496, “A screen for MeCP2-TBL1 interaction inhibitors using a luminescence-based assay” (Scientific Reports, 2023)

target: T1, MeCP2-TBL1 interaction (MeCP2-SmBiT / TBL1-LgBiT) (Mus musculus, UniProt Q9QXE7); assay: MeCP2-TBL1 NanoLuc luciferase complementation assay (cell-free, extracts of transfected HEK293 cells); type: binding, human; settings: primary screen of Asinex library, single well per compound;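 note: each compound tested at 20 µM final concentration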
T1 construct: expressed in transfected cells; crude lysate used as a cell-free assay
T1 sequence (Q9QXE7 166-527): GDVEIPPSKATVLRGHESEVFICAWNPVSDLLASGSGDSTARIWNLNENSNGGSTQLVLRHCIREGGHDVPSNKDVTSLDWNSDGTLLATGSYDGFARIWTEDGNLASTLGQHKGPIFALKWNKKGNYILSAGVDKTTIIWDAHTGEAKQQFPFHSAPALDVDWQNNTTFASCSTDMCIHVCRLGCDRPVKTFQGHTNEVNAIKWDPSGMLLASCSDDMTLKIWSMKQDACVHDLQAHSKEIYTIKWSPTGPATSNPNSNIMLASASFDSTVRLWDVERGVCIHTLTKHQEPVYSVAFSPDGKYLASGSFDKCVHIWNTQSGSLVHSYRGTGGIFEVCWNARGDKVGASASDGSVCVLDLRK
Method in brief: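 Cell-free split NanoLuc: lysate of HEK293 cells co-expressing the MeCP2 C-terminal half-SmBiT and TBL1 WD domain-LgBiT, mixed 1:1 with furimazine. After 30 min at room temperature, luminescence was plate-median normalized.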

| SMILES | Inhibition percent |
| --- | --- |
| CC(=O)N[C@H]1C[C@@H](C(=O)N(C)C)N(CC(=O)Nc2ccc3c(c2)OCCO3)[C@H]1c1ccccc1 [BDH_33617336] | -1.52 |
| CC(=O)N[C@@]12CCN(CC(=O)Nc3cc(C)ccc3F)C[C@@H]1[C@@H](c1ccccc1)N(C(C)=O)C2 [BDH_33619766] | -3.87 |
| O=C(CN1CCNCC1c1ccc(C(F)(F)F)cc1)NC(c1ccccc1)c1ccccc1 (stereo not shown) [BDH_33620941] | -0.43 |
| COc1ccc(NC(C)=O)c(NC(=O)CN2C[C@H]3CCC[C@H](Cc4cnccn4)[C@H]3C2)c1 [BDH_33621771] | 0.12 |
| CC(=O)N[C@@]12CN(C)CC[C@@H]1[C@@H](c1ccccc1)N(CC(=O)Nc1ccc(OC(F)F)cc1)C2 [BDH_33624452] | 0.21 |

Second part, the molecule after the results:

| Inhibition percent | SMILES |
| --- | --- |
| -1.03 | COc1cccc([C@@H]2C[C@]3(C)NC(=O)CCCC[C@@H]3N2CC(=O)Nc2ccc(N3CCCC3)cc2)c1 [BDH_33614614] |
| -1.00 | Cc1nc2ccc(NC(=O)CN3C[C@@H](c4cc(F)cc(F)c4)[C@@]4(CCCCC(=O)N4)C3)cc2[nH]1 [BDH_33616136] |
| -0.00541 | Cc1n[nH]c(C)c1NC(=O)CN1C[C@@H](c2cc(F)cc(F)c2)[C@@]2(CCCCC(=O)N2)C1 [BDH_33616713] |
| -2.26 | C[C@]12C[C@@H](c3ccccc3)N(CC(=O)Nc3ccc4c(c3)OCCO4)[C@H]1CCCCCN2 [BDH_33617257] |
| -0.65 | COc1cccc([C@@H]2C[C@]3(C)NC(=O)CCCC[C@@H]3N2CC(=O)Nc2cc(C)ccc2F)c1 [BDH_33619764] |
| -2.63 | COc1cccc([C@@H]2C[C@]3(C)NC(=O)CCCC[C@@H]3N2CC(=O)Nc2ccn(C)n2)c1 [BDH_33620384] |
| -1.41 | COc1cccc([C@@H]2C[C@]3(C)NC(=O)CCCC[C@@H]3N2CC(=O)Nc2cc(F)ccc2C)c1 [BDH_33620981] |
| -2.55 | CCn1cc(NC(=O)CN2[C@H]3CCCCC(=O)N[C@@]3(C)C[C@H]2c2cccc(C(F)(F)F)c2)c(C)n1 [BDH_33623667] |

same assay, conditions: primary screen of the Asinex library, sheet "Sargen output Asinex library", one well per compound

| SMILES | Inhibition percent |
| --- | --- |
| COc1ccc([C@@H]2C[C@]3(C)NC(=O)CCC[C@@H]3N2CC2(O)CCN(c3cccc(OC)c3)CC2)cc1 [BDH_33611075] | 1.71% |
| CC(=O)N[C@@H]1C[C@@H](C(=O)N(C)C)N(CC(=O)Nc2ccc3[nH]c(=O)[nH]c3c2)[C@H]1c1ccccc1 [BDH_33615574] | -1.45% |
| CC(=O)N1CCN(CC(=O)NCCc2nc3ccccc3[nH]2)CC1c1ccc(C(F)(F)F)cc1 (stereo not shown) [BDH_33616082] | -1.86% |
| CC(=O)N[C@H]1C[C@@H](C(=O)N(C)C)N(CC(=O)Nc2cccc(C(F)(F)F)c2)[C@H]1c1ccccc1 [BDH_33616368] | -1.15% |
| CC(=O)N[C@@]12CN(CC(=O)Nc3cccc(C(F)(F)F)c3)CC[C@@H]1[C@@H](c1ccccc1)N(C)C2 [BDH_33616433] | -0.29% |
| NC(=O)C1CN(Cc2ccccc2)CCN1CC(=O)Nc1ccccc1C(F)(F)F (stereo not shown) [BDH_33617130] | -2.26% |
| COc1ccc(C)c(NC(=O)CN2CC[C@@H]3[C@@H](c4ccccc4)N(C(C)=O)C[C@]3(NC(C)=O)C2)c1 [BDH_33618463] | -3.37% |
| CC(=O)N[C@@]12CN(CC(=O)Nc3cc(C)ccc3F)CC[C@@H]1[C@@H](c1ccccc1)N(C(C)=O)C2 [BDH_33619769] | -1.76% |
| CC(=O)N[C@@]12CN(C)CC[C@@H]1[C@@H](c1ccccc1)N(CC(=O)Nc1cccc(C)c1C)C2 [BDH_33621433] | -4.50% |
| CC(=O)N[C@@]12CN(C(C)=O)CC[C@@H]1[C@@H](c1ccccc1)N(CC(=O)Nc1cccc(C)c1C)C2 [BDH_33621434] | 5.23% |
| CCc1ccccc1NC(=O)CN1CC[C@@]2(NC(C)=O)CN(C(C)=O)[C@H](c3ccccc3)[C@H]2C1 [BDH_33623049] | -1.00% |
| CC(=O)N[C@H]1C[C@@H](C(=O)N(C)C)N(CC(=O)NCc2ccc3[nH]c(C)c(C)c3c2)[C@H]1c1ccccc1 [BDH_33623462] | -0.84% |

Next, values leading:

| Inhibition percent | SMILES |
| --- | --- |
| 1.72% | COc1ccc([C@@H]2[C@H]3CCCC[C@@]3(O)CCN2CC(=O)Nc2ccc(N3CCOCC3)cc2)cc1 [BDH_33614948] |
| -1.75% | COc1cccc([C@@H]2C[C@]3(C)NC(=O)CCCC[C@@H]3N2CC(=O)Nc2ccc3[nH]c(=O)[nH]c3c2)c1 [BDH_33615500] |
| -2.04% | C[C@]12C[C@@H](Cc3ccccc3)N(CC(=O)NCCc3nc4ccccc4[nH]3)[C@H]1CCCC(=O)N2 [BDH_33616100] |
| -1.20% | CC(=O)N[C@@]12CN(C)CC[C@@H]1[C@@H](c1ccccc1)N(CC(=O)Nc1ccc3c(c1)OCCO3)C2 [BDH_33617398] |
| -0.000394% | CCn1c(=O)oc2cc(NC(=O)CN3C[C@]4(NC(C)=O)CN(C)CC[C@@H]4[C@H]3c3ccccc3)ccc21 [BDH_33617644] |
| 1.66% | COc1cccc([C@@H]2C[C@]3(C)NC(=O)CCCC[C@@H]3N2CC(=O)Nc2ccc3c(c2)nc(C)n3C)c1 [BDH_33617989] |
| 4.29% | O=C(CN1C[C@@H](c2cc(F)cc(F)c2)[C@@]2(CCCCC(=O)N2)C1)Nc1ccnn1C1CCCC1 [BDH_33619464] |
| 1.60% | CC(=O)N[C@@]12CN(C(C)=O)CC[C@@H]1[C@@H](c1ccccc1)N(CC(=O)Nc1cc(F)ccc1C)C2 [BDH_33621128] |
| -0.21% | Cn1c(CNC(=O)CN2[C@H](Cc3ccccc3)C[C@]3(C)NC(=O)CCC[C@H]23)nc2ccccc21 [BDH_33623014] |
| 0.43% | COc1ccc([C@@H]2C[C@]3(C)NC(=O)CCC[C@@H]3N2CC(=O)NCc2nc3ccccc3n2C)cc1 [BDH_33623015] |
| -1.65% | CCn1cc(NC(=O)CN2[C@H](Cc3ccccc3)C[C@]3(C)NC(=O)CCC[C@H]23)c(C)n1 [BDH_33623813] |
| 1.80% | CC(=O)Nc1ccc(NC(=O)CN2[C@H](Cc3ccccc3)C[C@]3(C)NC(=O)CCC[C@H]23)c(Cl)c1 [BDH_33623952] |
| 7.98% | COc1cccc([C@@H]2C[C@]3(C)NC(=O)CCCC[C@@H]3N2CC(=O)Nc2ccc(OC(F)F)cc2)c1 [BDH_33624322] |

same assay, conditions: primary screen of the Asinex library, sheet "Sargen output Asinex library", one well per compound, Batch Ref. 1

| SMILES | Inhibition percent |
| --- | --- |
| CNC(=O)c1cnn2c(C3CCCCN3C(=O)c3ccnc(Cc4ccccc4F)c3)ccnc12 (stereo not shown) [BDH_33521663] | -0.23% |
| O=C(c1ccnc(Cc2ccccc2F)c1)N1CCC(Cc2nccnc2-c2ncc[nH]2)CC1 [BDH_33521693] | 0.97% |
| Cc1c[nH]c(-c2cncc(CC3CCN(C(=O)c4ccc(Cc5ccccc5F)nc4)CC3)n2)n1 [BDH_33521764] | 0.73% |
| COc1ccccc1Cc1cc(C(=O)N2CCCC2c2cncc(-c3nc(C)c[nH]3)n2)ccn1 (stereo not shown) [BDH_33522145] | 0.17% |
| COc1ccccc1Cc1cc(C(=O)N2CCC(c3nccnc3-c3nc(C)c[nH]3)CC2)ccn1 [BDH_33522161] | 6.35% |
| COc1cccc(N2CCC(O)(CN3C[C@@H](c4cccc(F)c4)[C@@]4(CCCC(=O)N4)C3)CC2)c1 [BDH_33611042] | 2.32% |
| COc1ccc(N2CCN(CC3(O)CCN(c4cccc(C)c4)CC3)C(C(N)=O)C2)cc1 (stereo not shown) [BDH_33612322] | -0.28% |
| COc1ccc(C)c(NC(=O)CN2CC[C@@]3(NC(C)=O)CN(C(C)=O)[C@H](c4ccccc4)[C@H]3C2)c1 [BDH_33618460] | 1.43% |
| CC(=O)N[C@H]1C[C@@H](C(=O)N(C)C)N(CC(=O)Nc2cccc3c2CCCC3)[C@H]1c1ccccc1 [BDH_33619991] | -0.19% |
| CC(=O)N[C@@]12CN(C(C)=O)CC[C@@H]1[C@@H](c1ccccc1)N(CC(=O)Nc1cccc(F)c1C)C2 [BDH_33622250] | -0.19% |

Second part, the molecule after the results:

| Inhibition percent | SMILES |
| --- | --- |
| 0.09% | COc1cccc([C@@H]2C[C@]3(C)NC(=O)CCCC[C@@H]3N2CC(=O)NCCc2nc3ccccc3[nH]2)c1 [BDH_33615965] |
| 1.14% | CC(=O)N[C@@]12CN(CC(=O)Nc3ccc4nc(C)[nH]c4c3)CC[C@@H]1[C@@H](c1ccccc1)N(C(C)=O)C2 [BDH_33616134] |
| 6.38% | Cc1nc2ccc(NC(=O)CN3CC[C@@]4(C)[C@@H]3CCCCC(=O)N4Cc3ccc(F)cc3)cc2[nH]1 [BDH_33616216] |
| 6.90% | C[C@]12C[C@@H](Cc3ccccc3)N(CC(=O)Nc3cccc(C(F)(F)F)c3)[C@H]1CCCC(=O)N2 [BDH_33616434] |
| 1.15% | Cc1nc2cc(NC(=O)CN3C[C@@H](c4cc(F)cc(F)c4)[C@@]4(CCCCC(=O)N4)C3)ccc2n1C [BDH_33617993] |
| 4.04% | CC(=O)N[C@@]12CN(C)CC[C@@H]1[C@@H](c1ccccc1)N(CC(=O)Nc1ccc3c(c1)nc(C)n3C)C2 [BDH_33618117] |
| 4.89% | COc1ccc([C@@H]2C[C@]3(C)NC(=O)CCC[C@@H]3N2CC(=O)Nc2ccc3c(c2)nc(C)n3C)cc1 [BDH_33618124] |
| 2.19% | COc1cccc([C@@H]2C[C@]3(C)NC(=O)CCCC[C@@H]3N2CC(=O)Nc2cccc(C)c2C)c1 [BDH_33621286] |
| 0.95% | COc1cccc([C@@H]2C[C@]3(C)NC(=O)CCCC[C@@H]3N2CC(=O)NCc2nc3ccccc3n2C)c1 [BDH_33622879] |
| -0.10% | COc1ccc([C@@H]2C[C@]3(C)NC(=O)CCC[C@@H]3N2CC(=O)NCc2ccc3[nH]c(C)c(C)c3c2)cc1 [BDH_33623525] |
